Legend:
[1] = molecular target: T1, BCL6 (Homo sapiens, UniProt P41182); assay: BCL6 degradation immunoblot in VAL cells; format: cell-based
T1 construct: endogenous in cells; host or cells: VAL cells
Method: (§1) Inclusive of Examples 8-14, VAL cells were seeded in 6-well plates at 1×10^6 cells/well and treated with indicated concentration and time point for the indicated compounds. Total protein was extracted from cells using the RIPA buffer (Abcam) supplemented with the Halt Protease Inhibitor Cocktail (Millipore-Sigma). Samples were loaded to Invitrogen Bolt Bis -Tris Plus gels (ThermoFisher Scientific) and transferred to Invitrolon PVDF membranes (ThermoFisher Scientific) using the Invitrogen Bolt wet-gel Transfer Device. Immunodetection was performed with standard techniques. The following primary and secondary antibodies were used: anti-BCL6, β-actin, H3 (Cell Signaling Technology), and IRDye secondary antibodies at the concentration recommended by the manufacturer.
VAL cells were treated with compounds at serial concentrations of 0.1 μM, 1.0 μM, and 10 μM for 4 hours.
VAL cells were treated with 1 at serial concentrations of 0.001 μM, 0.010 μM, 0.100 μM, 1.0 μM, and 10 μM for 4 hours.
VAL cells were treated with 5 at serial concentrations of 0.001 μM, 0.010 μM, 0.100 μM, 1.0 μM, and 10 μM for 4 hours.
VAL cells were treated with 1 at 0.1 μM for 1, 2, 4, 8, and 24 hours.
VAL cells were treated with 6 at serial concentrations of 0.1 μM, 0.3 μM, 1.0 μM, 3.0 μM and 10 μM for 4 hours.

[2] = molecular target: T1, BCL6; assay: BCL6 degradation immunoblot in DB cells; format: cell-based; details: tested at 0.1, 1.0, 10 μM for 4 hours, compared to BI-3812 and BI-3802
Method: as §1
DB cells were treated with compounds at serial concentrations of 0.1 μM, 1.0 μM, and 10 μM for 4 hours.

[3] = tested at 0.001, 0.010, 0.100, 1.0, 10 μM for 4 hours
[4] = tested at 0.1, 1.0, 10 μM for 4 hours, compared to BI-3812 and BI-3802

Row | SMILES | time in which BCL6 is degraded (immunoblot) ([1]; 0.1 μM (100 nM), time points 1, 2, 4, 8, 24 hours) | concentration at which compound degrades BCL6 (immunoblot) [1, 3] [nM] | concentration at which compound degrades BCL6 (immunoblot) [1, 4] [nM] | concentration at which compound degrades BCL6 (immunoblot) [2] [nM] | concentration at which compound degrades BCL6 (immunoblot) ([1]; tested at 0.1, 0.3, 1.0, 3.0, 10 μM for 4 hours) [nM]
1 | CNC(=O)COc1cc2cc(Nc3nc(N4CCC(C(=O)NCCCCCCCCNc5cccc6c5C(=O)N(C5CCC(=O)NC5=O)C6=O)CC4)ncc3Cl)cc(OC)c2n(C)c1=O (centres unmarked) [compound 1, 1-(5-chloro-4-((8-methoxy-1-methyl-3-(2-(methylamino)-2-oxoethoxy)-2-oxo-1,2-dihydroquinolin-6-yl)amino)pyrimidin-2-yl)-N-(8-((2-(2,6-dioxopiperidin-3-yl)-1,3-dioxoisoindolin-4-yl)amino)octyl)piperidine-4-carboxamide] | less than 1 hour | 1.0 | 100 |  | 
2 | CNC(=O)COc1cc2cc(Nc3nc(N4CCC(C(=O)NCCCCNc5cccc6c5C(=O)N(C5CCC(=O)NC5=O)C6=O)CC4)ncc3Cl)cc(OC)c2n(C)c1=O (centres unmarked) [compound 3, 1-(5-chloro-4-((8-methoxy-1-methyl-3-(2-(methylamino)-2-oxoethoxy)-2-oxo-1,2-dihydroquinolin-6-yl)amino)pyrimidin-2-v1)-N-(4-((2-(2,6-dioxopiperidin-3-yl)-1,3-dioxoisoindolin-4-yl)amino)butyl)piperidine-4-carboxamide] |  |  | 100 | 100 | 
3 | CNC(=O)COc1cc2cc(Nc3nc(N4CCC(NC(=O)CCCCCCCCCCCNc5cccc6c5C(=O)N(C5CCC(=O)NC5=O)C6=O)CC4)ncc3Cl)cc(OC)c2n(C)c1=O (centres unmarked) [compound 5, N-(1-(5-chloro-4-((8-methoxy-1-methyl-3-(2-(methylamino)-2-oxoethoxy)-2-oxo-1,2-dihydroquinolin-6-yl)amino)pyrimidin-2-yl)piperidin-4-yl)-12-((2-(2,6-dioxopiperidin-3-yl)-1,3-dioxoisoindolin-4-yl)amino)dodecanamide] |  | 10 | 100 | 1000 | 
4 | CNC(=O)COc1cc2cc(Nc3nc(N4CCC(C(=O)NCCOCCNc5cccc6c5C(=O)N(C5CCC(=O)NC5=O)C6=O)CC4)ncc3Cl)cc(OC)c2n(C)c1=O (centres unmarked) [compound 4, 1-(5-chloro-4-((8-methoxy-1-methyl-3-(2-(methylamino)-2-oxoethoxy)-2-oxo-1,2-dihydroquinolin-6-yl)amino)pyrimidin-2-vl)-N-(2-(2-((2-(2,6-dioxopiperidin-3-yl)-1,3-dioxoisoindolin-4-yl)amino)ethoxy)ethyl)piperidine-4-carboxamide] |  |  | 100 | 1000 | 
5 | CNC(=O)COc1cc2cc(Nc3nc(N4CCC(C(=O)NCCCCCCNC(=O)COc5cccc6c5C(=O)N(C5CCC(=O)NC5=O)C6=O)CC4)ncc3Cl)cc(OC)c2n(C)c1=O (centres unmarked) [compound 6, 1-(5-chloro-4-((8-methoxy-1-methyl-3-(2-(methylamino)-2-oxoethoxy)-2-oxo-1,2-dihydroquinolin-6-yl)amino)pyrimidin-2-vl)-N-(6-(2-((2-(2,6-dioxopiperidin-3-yl)-1,3-dioxoisoindolin-4-yl)oxy)acetamido)hexyl)piperidine-4-carboxamide] |  |  |  |  | 300

Source: patent publication US20250066326A1, “BCL6 DEGRADERS AND USES THEREOF” (Dana-Farber Cancer Institute, Inc., priority 2021, published 2025)
